How the values were obtained:
lambsquarters [1] = assay: Test C preemergence; type: in vivo, Chenopodium album; conditions: preemergence; for Plant response rating, Lambsquarters: 125 g ai/ha, scale 0 to 100, 0 = no effect, 100 = complete control
In short: (§1)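 Visual rating, 0–100 scale (0 no effect, 100 complete control), vs untreated controls after 13–15 d greenhouse. Pre: seeds in loam/sand, treated at sowing. Post: plants in peat-based mix, 1- to 4-leaf (2–18 cm). Solvent + surfactant formulation, non-phytotoxic.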

ryegrass, Italian = assay: Test C postemergence; type: in vivo, Lolium multiflorum; conditions: postemergence
In short: as §1

galium = assay: Test C postemergence; type: in vivo, Galium aparine; conditions: for Plant response rating (scale of 0 to 100 where 0 is no effect and 100 is complete control), Galium: Postemergence, 31 g ai/ha, visually evaluated after 13 to 15 days; for Galium plant response rating / Plant response rating, Galium: postemergence; for Galium plant response rating: 62 g ai/ha, scale 0 to 100
In short: as §1

foxtail, giant = assay: Test C postemergence; type: in vivo, Setaria faberii; conditions: for Plant response rating (scale of 0 to 100 where 0 is no effect and 100 is complete control), Foxtail, Giant: Postemergence, 31 g ai/ha, visually evaluated after 13 to 15 days; for Foxtail, Giant plant response rating / Plant response rating, Foxtail, Giant: postemergence; for Foxtail, Giant plant response rating: 62 g ai/ha, scale 0 to 100
In short: as §1

lambsquarters [2] = assay: Test C postemergence; type: in vivo, Chenopodium album; conditions: for Plant response rating (scale of 0 to 100 where 0 is no effect and 100 is complete control), Lambsquarters: Postemergence, 31 g ai/ha, visually evaluated after 13 to 15 days; for Lambsquarters plant response rating / Plant response rating, Lambsquarters: postemergence; for Lambsquarters plant response rating: 62 g ai/ha, scale 0 to 100
In short: as §1

morningglory = assay: Test C postemergence; type: in vivo, Ipomoea coccinea; conditions: for Plant response rating (scale of 0 to 100 where 0 is no effect and 100 is complete control), Morningglory: Postemergence, 31 g ai/ha, visually evaluated after 13 to 15 days; for Morningglory plant response rating / Plant response rating, Morningglory: postemergence; for Morningglory plant response rating: 62 g ai/ha, scale 0 to 100
In short: as §1

nutsedge, yellow = assay: Test C postemergence; type: in vivo, Cyperus esculentus; conditions: for Plant response rating (scale of 0 to 100 where 0 is no effect and 100 is complete control), Nutsedge, Yellow: Postemergence, 31 g ai/ha, visually evaluated after 13 to 15 days; for Nutsedge, Yellow plant response rating / Plant response rating, Nutsedge, Yellow: postemergence; for Nutsedge, Yellow plant response rating: 62 g ai/ha, scale 0 to 100
In short: as §1

pigweed = assay: Test C postemergence; type: in vivo, Amaranthus retroflexus; conditions: postemergence; for Pigweed plant response rating: 62 g ai/ha, scale 0 to 100
In short: as §1

ragweed = assay: Test C postemergence; type: in vivo, Ambrosia elation; conditions: postemergence
In short: as §1

soybean = assay: Test C postemergence; type: in vivo, Glycine max; conditions: postemergence; for Plant response rating, Soybean: 250 g ai/ha, scale 0 to 100 (0 no effect, 100 complete control); for Soybean plant response rating: 125 g ai/ha, scale 0 to 100, 0 no effect, 100 complete control
In short: as §1

barnyardgrass = assay: Test C postemergence; type: in vivo, Echinochloa crus-galli; conditions: for Plant response rating (scale of 0 to 100 where 0 is no effect and 100 is complete control), Barnyardgrass: Postemergence, 31 g ai/ha, visually evaluated after 13 to 15 days; for Barnyardgrass plant response rating / Plant response rating, Barnyardgrass: postemergence; for Barnyardgrass plant response rating: 62 g ai/ha, scale 0 to 100
In short: as §1

waterhemp = assay: Test C postemergence; type: in vivo, Amaranthus rudis; conditions: postemergence; for Plant response rating, Waterhemp: 250 g ai/ha, scale 0 to 100 (0 no effect, 100 complete control)
In short: as §1

oat, wild = assay: Test C postemergence; type: in vivo, Avena fatua; conditions: for Plant response rating (scale of 0 to 100 where 0 is no effect and 100 is complete control), Oat, Wild: Postemergence, 31 g ai/ha, visually evaluated after 13 to 15 days; for Oat, Wild plant response rating / Plant response rating, Oat, Wild: postemergence; for Oat, Wild plant response rating: 62 g ai/ha, scale 0 to 100
In short: as §1

kochia = assay: Test C postemergence; type: in vivo, Kochia scoparia; conditions: for Plant response rating (scale of 0 to 100 where 0 is no effect and 100 is complete control), Kochia: Postemergence, 31 g ai/ha, visually evaluated after 13 to 15 days; for Kochia plant response rating / Plant response rating, Kochia: postemergence; for Kochia plant response rating: 62 g ai/ha, scale 0 to 100
In short: as §1

velvetleaf = assay: Test C postemergence; type: in vivo, Abutilon theophrasti; conditions: postemergence; for Plant response rating, Velvetleaf: 250 g ai/ha, scale 0 to 100 (0 no effect, 100 complete control); for Velvetleaf plant response rating: scale 0 to 100
In short: as §1

chickweed = assay: Test C postemergence; type: in vivo, Stellaria media; conditions: for Plant response rating (scale of 0 to 100 where 0 is no effect and 100 is complete control), Chickweed: Postemergence, 31 g ai/ha, visually evaluated after 13 to 15 days; for Chickweed plant response rating / Plant response rating, Chickweed: postemergence; for Chickweed plant response rating: 62 g ai/ha, scale 0 to 100
In short: as §1

[3] = 31 g ai/ha, visual rating, scale 0 to 100 (0 no effect, 100 complete control), 13 to 15 days
[4] = 62 g ai/ha, scale 0 to 100 (0 no effect, 100 complete control), 13 to 15 days
[5] = 250 g ai/ha, scale 0 to 100, 0 is no effect, 100 is complete control
[6] = 250 g ai/ha, scale 0 to 100 (0 no effect, 100 complete control)
[7] = 125 g ai/ha, scale 0 to 100, 0 no effect, 100 complete control

SMILES: CCCc1cc(C(=O)NOCC)nn1Cc1ccnc(C(F)(F)F)c1 [Compound 185]
- Lambsquarters plant response rating (lambsquarters [1]; [3]): 98
- Lambsquarters plant response rating (lambsquarters [1]; [4]): 98
- Plant response rating, Lambsquarters (lambsquarters [1]; 13 to 15 days): 100
- Lambsquarters plant response rating (lambsquarters [1]; [5]): 100
- Plant response rating, Ryegrass, Italian (ryegrass, Italian; [6]): 0
- Plant response rating, Ryegrass, Italian (ryegrass, Italian; [7]): 0
- Plant response rating (scale of 0 to 100 where 0 is no effect and 100 is complete control), Galium (galium): 40
- Galium plant response rating (galium): 40
- Plant response rating, Galium (galium; [6]): 70
- Plant response rating, Galium (galium; [7]): 45
- Plant response rating (scale of 0 to 100 where 0 is no effect and 100 is complete control), Foxtail, Giant (foxtail, giant): 5
- Foxtail, Giant plant response rating (foxtail, giant): 5
- Plant response rating, Foxtail, Giant (foxtail, giant; [6]): 5
- Plant response rating, Foxtail, Giant (foxtail, giant; [7]): 10
- Plant response rating (scale of 0 to 100 where 0 is no effect and 100 is complete control), Lambsquarters (lambsquarters [2]): 70
- Lambsquarters plant response rating (lambsquarters [2]): 35
- Plant response rating, Lambsquarters (lambsquarters [2]; [6]): 65
- Plant response rating, Lambsquarters (lambsquarters [2]; [7]): 45
- Plant response rating (scale of 0 to 100 where 0 is no effect and 100 is complete control), Morningglory (morningglory): 40
- Morningglory plant response rating (morningglory): 45
- Plant response rating, Morningglory (morningglory; [6]): 75
- Plant response rating, Morningglory (morningglory; [7]): 85
- Plant response rating (scale of 0 to 100 where 0 is no effect and 100 is complete control), Nutsedge, Yellow (nutsedge, yellow): 0
- Nutsedge, Yellow plant response rating (nutsedge, yellow): 0
- Plant response rating, Nutsedge, Yellow (nutsedge, yellow; [6]): 10
- Plant response rating, Nutsedge, Yellow (nutsedge, yellow; [7]): 5
- Pigweed plant response rating (pigweed): 50
- Plant response rating, Pigweed (pigweed; [6]): 85
- Plant response rating, Pigweed (pigweed; [7]): 75
- Plant response rating, Ragweed (ragweed; [6]): 30
- Plant response rating, Ragweed (ragweed; [7]): 40
- Plant response rating, Soybean (soybean): 50
- Soybean plant response rating (soybean): 40
- Plant response rating (scale of 0 to 100 where 0 is no effect and 100 is complete control), Barnyardgrass (barnyardgrass): 0
- Barnyardgrass plant response rating (barnyardgrass): 0
- Plant response rating, Barnyardgrass (barnyardgrass; [6]): 20
- Plant response rating, Barnyardgrass (barnyardgrass; [7]): 5
- Plant response rating, Waterhemp (waterhemp): 85
- Waterhemp plant response rating (waterhemp; scale 0 to 100): 35
- Plant response rating (scale of 0 to 100 where 0 is no effect and 100 is complete control), Oat, Wild (oat, wild): 5
- Oat, Wild plant response rating (oat, wild): 10
- Plant response rating, Oat, Wild (oat, wild; [6]): 15
- Plant response rating, Oat, Wild (oat, wild; [7]): 10
- Plant response rating (scale of 0 to 100 where 0 is no effect and 100 is complete control), Kochia (kochia): 50
- Kochia plant response rating (kochia): 60
- Plant response rating, Kochia (kochia; [6]): 80
- Plant response rating, Kochia (kochia; [7]): 75
- Plant response rating, Velvetleaf (velvetleaf): 35
- Velvetleaf plant response rating (velvetleaf): 25
- Plant response rating (scale of 0 to 100 where 0 is no effect and 100 is complete control), Chickweed (chickweed): 70
- Chickweed plant response rating (chickweed): 80
- Plant response rating, Chickweed (chickweed; [6]): 85
- Plant response rating, Chickweed (chickweed; [7]): 85

SMILES: CCOc1cc(C(=O)NC(C)C)nn1Cc1ccnc(C(F)(F)F)c1 [Compound 188]
- Lambsquarters plant response rating (lambsquarters [1]; [3]): 100
- Lambsquarters plant response rating (lambsquarters [1]; [4]): 100
- Plant response rating, Lambsquarters (lambsquarters [1]; 13 to 15 days): 100
- Lambsquarters plant response rating (lambsquarters [1]; [5]): 100
- Plant response rating, Ryegrass, Italian (ryegrass, Italian; [6]): 35
- Plant response rating, Ryegrass, Italian (ryegrass, Italian; [7]): 20
- Plant response rating (scale of 0 to 100 where 0 is no effect and 100 is complete control), Galium (galium): 80
- Galium plant response rating (galium): 80
- Plant response rating, Galium (galium; [6]): 90
- Plant response rating, Galium (galium; [7]): 90
- Plant response rating (scale of 0 to 100 where 0 is no effect and 100 is complete control), Foxtail, Giant (foxtail, giant): 5
- Foxtail, Giant plant response rating (foxtail, giant): 40
- Plant response rating, Foxtail, Giant (foxtail, giant; [6]): 90
- Plant response rating, Foxtail, Giant (foxtail, giant; [7]): 60
- Plant response rating (scale of 0 to 100 where 0 is no effect and 100 is complete control), Lambsquarters (lambsquarters [2]): 60
- Lambsquarters plant response rating (lambsquarters [2]): 75
- Plant response rating, Lambsquarters (lambsquarters [2]; [6]): 95
- Plant response rating, Lambsquarters (lambsquarters [2]; [7]): 90
- Plant response rating (scale of 0 to 100 where 0 is no effect and 100 is complete control), Morningglory (morningglory): 85
- Morningglory plant response rating (morningglory): 90
- Plant response rating, Morningglory (morningglory; [6]): 98
- Plant response rating, Morningglory (morningglory; [7]): 98
- Plant response rating (scale of 0 to 100 where 0 is no effect and 100 is complete control), Nutsedge, Yellow (nutsedge, yellow): 5
- Nutsedge, Yellow plant response rating (nutsedge, yellow): 35
- Plant response rating, Nutsedge, Yellow (nutsedge, yellow; [6]): 10
- Plant response rating, Nutsedge, Yellow (nutsedge, yellow; [7]): 5
- Pigweed plant response rating (pigweed): 75
- Plant response rating, Pigweed (pigweed; [6]): 85
- Plant response rating, Pigweed (pigweed; [7]): 80
- Plant response rating, Ragweed (ragweed; [6]): 90
- Plant response rating, Ragweed (ragweed; [7]): 85
- Plant response rating, Soybean (soybean): 98
- Soybean plant response rating (soybean): 95
- Plant response rating (scale of 0 to 100 where 0 is no effect and 100 is complete control), Barnyardgrass (barnyardgrass): 5
- Barnyardgrass plant response rating (barnyardgrass): 15
- Plant response rating, Barnyardgrass (barnyardgrass; [6]): 65
- Plant response rating, Barnyardgrass (barnyardgrass; [7]): 30
- Plant response rating, Waterhemp (waterhemp): 95
- Plant response rating (scale of 0 to 100 where 0 is no effect and 100 is complete control), Oat, Wild (oat, wild): 15
- Oat, Wild plant response rating (oat, wild): 10
- Plant response rating, Oat, Wild (oat, wild; [6]): 85
- Plant response rating, Oat, Wild (oat, wild; [7]): 60
- Plant response rating (scale of 0 to 100 where 0 is no effect and 100 is complete control), Kochia (kochia): 90
- Kochia plant response rating (kochia): 90
- Plant response rating, Kochia (kochia; [6]): 90
- Plant response rating, Kochia (kochia; [7]): 90
- Plant response rating, Velvetleaf (velvetleaf): 80
- Velvetleaf plant response rating (velvetleaf): 60
- Plant response rating (scale of 0 to 100 where 0 is no effect and 100 is complete control), Chickweed (chickweed): 70
- Chickweed plant response rating (chickweed): 85
- Plant response rating, Chickweed (chickweed; [6]): 98
- Plant response rating, Chickweed (chickweed; [7]): 80
